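Method: 48-hour compound exposure of cells in 96-well plates, five concentrations, linear interpolation of endpoints. GI50: concentration for 50% inhibition of growth. The concentration for full growth arrest is given as TGI.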
Assays:
Assay in all cases: DTP human tumour cell line panel, 48 h
RXF 393 renal = tested on: RXF 393 renal
MDA-MB-468 breast = tested on: MDA-MB-468 breast
T-47D breast = tested on: T-47D breast
HL-60(TB) leukemia = tested on: HL-60(TB) leukemia
SF-539 CNS = tested on: SF-539 CNS
OVCAR-5 ovarian = tested on: OVCAR-5 ovarian
MALME-3M melanoma = tested on: MALME-3M melanoma
OVCAR-3 ovarian = tested on: OVCAR-3 ovarian
K-562 leukemia = tested on: K-562 leukemia
COLO 205 colon = tested on: COLO 205 colon
SF-268 CNS = tested on: SF-268 CNS
SK-MEL-28 melanoma = tested on: SK-MEL-28 melanoma
HT29 colon = tested on: HT29 colon
MDA-MB-231 breast = tested on: MDA-MB-231 breast
HOP-92 NSCLC = tested on: HOP-92 NSCLC
HCC-2998 colon = tested on: HCC-2998 colon
TK-10 renal = tested on: TK-10 renal
SR leukemia = tested on: SR leukemia
DU-145 prostate = tested on: DU-145 prostate
CAKI-1 renal = tested on: CAKI-1 renal
UO-31 renal = tested on: UO-31 renal
SNB-19 CNS = tested on: SNB-19 CNS
HCT-15 colon = tested on: HCT-15 colon
OVCAR-8 ovarian = tested on: OVCAR-8 ovarian
786-0 renal = tested on: 786-0 renal
ACHN renal = tested on: ACHN renal
MCF7 breast = tested on: MCF7 breast
CCRF-CEM leukemia = tested on: CCRF-CEM leukemia
EKVX NSCLC = tested on: EKVX NSCLC
MDA-MB-435 = tested on: MDA-MB-435
UACC-62 melanoma = tested on: UACC-62 melanoma
OVCAR-4 ovarian = tested on: OVCAR-4 ovarian
HCT-116 colon = tested on: HCT-116 colon
LOX IMVI melanoma = tested on: LOX IMVI melanoma
A498 renal = tested on: A498 renal
NCI-H226 lung = tested on: NCI-H226 lung
A549 NSCLC = tested on: A549 NSCLC
IGROV1 ovarian = tested on: IGROV1 ovarian
SK-MEL-2 melanoma = tested on: SK-MEL-2 melanoma
SN12C renal = tested on: SN12C renal
SW-620 colon = tested on: SW-620 colon
HOP-62 NSCLC = tested on: HOP-62 NSCLC
PC-3 prostate = tested on: PC-3 prostate
SK-MEL-5 melanoma = tested on: SK-MEL-5 melanoma
SNB-75 CNS = tested on: SNB-75 CNS
MOLT-4 leukemia = tested on: MOLT-4 leukemia
U251 CNS = tested on: U251 CNS
NCI/ADR-RES ovarian = tested on: NCI/ADR-RES ovarian
NCI-H460 lung = tested on: NCI-H460 lung
M14 melanoma = tested on: M14 melanoma
UACC-257 melanoma = tested on: UACC-257 melanoma
HS 578T breast = tested on: HS 578T breast
SF-295 CNS = tested on: SF-295 CNS
BT-549 breast = tested on: BT-549 breast
KM12 colon = tested on: KM12 colon
NCI-H522 lung = tested on: NCI-H522 lung
NCI-H23 lung = tested on: NCI-H23 lung
RPMI-8226 leukemia = tested on: RPMI-8226 leukemia
SK-OV-3 ovarian = tested on: SK-OV-3 ovarian

`N#Cc1ccc(C(=O)CSc2nc3c(c(Nc4ccc(S(N)(=O)=O)cc4)n2)CCC3)cc1` showed a GI50 (RXF 393 renal) greater than 22.5 µM, a TGI (RXF 393 renal) greater than 22.5 µM and a GI50 (MDA-MB-468 breast) greater than 22.5 µM. For the same compound, the TGI (MDA-MB-468 breast) was greater than 22.5 µM, the GI50 (T-47D breast) was greater than 22.5 µM and the TGI (T-47D breast) was greater than 22.5 µM. For the same compound, the GI50 (HL-60(TB) leukemia) was greater than 22.5 µM, the TGI (HL-60(TB) leukemia) was greater than 22.5 µM and the GI50 (SF-539 CNS) was greater than 22.5 µM. It also gave a TGI (SF-539 CNS) greater than 22.5 µM, a GI50 (OVCAR-5 ovarian) greater than 22.5 µM and a TGI (OVCAR-5 ovarian) greater than 22.5 µM. For the same compound, the GI50 (MALME-3M melanoma) was greater than 22.5 µM, the TGI (MALME-3M melanoma) was greater than 22.5 µM and the GI50 (OVCAR-3 ovarian) was greater than 22.5 µM. The TGI (OVCAR-3 ovarian) was greater than 22.5 µM, the GI50 (K-562 leukemia) was greater than 22.5 µM and the TGI (K-562 leukemia) was greater than 22.5 µM. For the same compound, the GI50 (COLO 205 colon) was greater than 22.5 µM, the TGI (COLO 205 colon) was greater than 22.5 µM and the GI50 (SF-268 CNS) was greater than 22.5 µM. It also gave a TGI (SF-268 CNS) greater than 22.5 µM, a GI50 (SK-MEL-28 melanoma) greater than 22.5 µM and a TGI (SK-MEL-28 melanoma) greater than 22.5 µM. The GI50 (HT29 colon) was greater than 22.5 µM, the TGI (HT29 colon) was greater than 22.5 µM and the GI50 (MDA-MB-231 breast) was greater than 22.5 µM. It also gave a TGI (MDA-MB-231 breast) greater than 22.5 µM, a GI50 (HOP-92 NSCLC) greater than 22.5 µM and a TGI (HOP-92 NSCLC) greater than 22.5 µM. It also gave a GI50 (HCC-2998 colon) greater than 22.5 µM, a TGI (HCC-2998 colon) greater than 22.5 µM and a GI50 (TK-10 renal) greater than 22.5 µM. It also gave a TGI (TK-10 renal) greater than 22.5 µM, a GI50 (SR leukemia) greater than 22.5 µM and a TGI (SR leukemia) greater than 22.5 µM. It also gave a GI50 (DU-145 prostate) greater than 22.5 µM, a TGI (DU-145 prostate) greater than 22.5 µM and a GI50 (CAKI-1 renal) greater than 22.5 µM. For the same compound, the TGI (CAKI-1 renal) was greater than 22.5 µM, the GI50 (UO-31 renal) was greater than 22.5 µM and the TGI (UO-31 renal) was greater than 22.5 µM. The GI50 (SNB-19 CNS) was greater than 22.5 µM, the TGI (SNB-19 CNS) was greater than 22.5 µM and the GI50 (HCT-15 colon) was greater than 22.5 µM. The TGI (HCT-15 colon) was greater than 22.5 µM, the GI50 (OVCAR-8 ovarian) was greater than 22.5 µM and the TGI (OVCAR-8 ovarian) was greater than 22.5 µM. The GI50 (786-0 renal) was greater than 22.5 µM, the TGI (786-0 renal) was greater than 22.5 µM and the GI50 (ACHN renal) was greater than 22.5 µM. The TGI (ACHN renal) was greater than 22.5 µM, the GI50 (MCF7 breast) was greater than 22.5 µM and the TGI (MCF7 breast) was greater than 22.5 µM. For the same compound, the GI50 (CCRF-CEM leukemia) was greater than 22.5 µM, the TGI (CCRF-CEM leukemia) was greater than 22.5 µM and the GI50 (EKVX NSCLC) was greater than 22.5 µM. It also gave a TGI (EKVX NSCLC) greater than 22.5 µM, a GI50 (MDA-MB-435) greater than 22.5 µM and a TGI (MDA-MB-435) greater than 22.5 µM. For the same compound, the GI50 (UACC-62 melanoma) was greater than 22.5 µM, the TGI (UACC-62 melanoma) was greater than 22.5 µM and the GI50 (OVCAR-4 ovarian) was greater than 22.5 µM. It also gave a TGI (OVCAR-4 ovarian) greater than 22.5 µM, a GI50 (HCT-116 colon) greater than 22.5 µM and a TGI (HCT-116 colon) greater than 22.5 µM. The GI50 (LOX IMVI melanoma) was greater than 22.5 µM, the TGI (LOX IMVI melanoma) was greater than 22.5 µM and the GI50 (A498 renal) was greater than 22.5 µM. For the same compound, the TGI (A498 renal) was greater than 22.5 µM, the GI50 (NCI-H226 lung) was greater than 22.5 µM and the TGI (NCI-H226 lung) was greater than 22.5 µM. It also gave a GI50 (A549 NSCLC) greater than 22.5 µM, a TGI (A549 NSCLC) greater than 22.5 µM and a GI50 (IGROV1 ovarian) greater than 22.5 µM. It also gave a TGI (IGROV1 ovarian) greater than 22.5 µM, a GI50 (SK-MEL-2 melanoma) greater than 22.5 µM and a TGI (SK-MEL-2 melanoma) greater than 22.5 µM. The GI50 (SN12C renal) was greater than 22.5 µM, the TGI (SN12C renal) was greater than 22.5 µM and the GI50 (SW-620 colon) was greater than 22.5 µM. The TGI (SW-620 colon) was greater than 22.5 µM, the GI50 (HOP-62 NSCLC) was greater than 22.5 µM and the TGI (HOP-62 NSCLC) was greater than 22.5 µM. The GI50 (PC-3 prostate) was greater than 22.5 µM, the TGI (PC-3 prostate) was greater than 22.5 µM and the GI50 (SK-MEL-5 melanoma) was greater than 22.5 µM. It also gave a TGI (SK-MEL-5 melanoma) greater than 22.5 µM, a GI50 (SNB-75 CNS) greater than 22.5 µM and a TGI (SNB-75 CNS) greater than 22.5 µM. It also gave a GI50 (MOLT-4 leukemia) greater than 22.5 µM, a TGI (MOLT-4 leukemia) greater than 22.5 µM and a GI50 (U251 CNS) greater than 22.5 µM. For the same compound, the TGI (U251 CNS) was greater than 22.5 µM, the GI50 (NCI/ADR-RES ovarian) was greater than 22.5 µM and the TGI (NCI/ADR-RES ovarian) was greater than 22.5 µM. The GI50 (NCI-H460 lung) was greater than 22.5 µM, the TGI (NCI-H460 lung) was greater than 22.5 µM and the GI50 (M14 melanoma) was greater than 22.5 µM. The TGI (M14 melanoma) was greater than 22.5 µM, the GI50 (UACC-257 melanoma) was greater than 22.5 µM and the TGI (UACC-257 melanoma) was greater than 22.5 µM. It also gave a GI50 (HS 578T breast) greater than 22.5 µM, a TGI (HS 578T breast) greater than 22.5 µM and a GI50 (SF-295 CNS) greater than 22.5 µM. For the same compound, the TGI (SF-295 CNS) was greater than 22.5 µM, the GI50 (BT-549 breast) was greater than 22.5 µM and the TGI (BT-549 breast) was greater than 22.5 µM. It also gave a GI50 (KM12 colon) greater than 22.5 µM, a TGI (KM12 colon) greater than 22.5 µM and a GI50 (NCI-H522 lung) greater than 22.5 µM. For the same compound, the TGI (NCI-H522 lung) was greater than 22.5 µM, the GI50 (NCI-H23 lung) was greater than 22.5 µM and the TGI (NCI-H23 lung) was greater than 22.5 µM. It also gave a GI50 (RPMI-8226 leukemia) greater than 22.5 µM, a TGI (RPMI-8226 leukemia) greater than 22.5 µM and a GI50 (SK-OV-3 ovarian) greater than 22.5 µM. It also gave a TGI (SK-OV-3 ovarian) greater than 22.5 µM.

From PubChem BioAssay (NCI)
